system: Beet Armyworm (Spodoptera exigua); assay: Bioassay on Beet Armyworm (BAW), 128-well diet tray assay; assay type: in vivo; details: percent mortality of second instar larvae, 50 μg/cm^2 on artificial diet, five to seven days, 25° C.; Table 3
Experimental: Certain molecules disclosed in this document were tested against BAW and CEW and CL using procedures described in the following examples. In the reporting of the results, the “BAW & CEW & CL Rating Table” was used (See Table Section).
Bioassays on BAW (Spodoptera exigua)
Bioassays on BAW were conducted using a 128-well diet tray assay. one to five second instar BAW larvae were placed in each well (3 mL) of the diet tray that had been previously filled with 1 mL of artificial diet to which 50 μg/cm^2 of the test compound (dissolved in 50 μL of 90:10 acetone-water mixture) had been applied (to each of eight wells) and then allowed to dry. Trays were covered with a clear self-adhesive cover, and held at 25° C., 14:10 light-dark for five to seven days. Percent mortality was recorded for the larvae in each well; activity in the eight wells was then averaged. The results are indicated in the table entitled “Table 3: Assay Results” (See Table Section).

SMILES | BAW Rating
O=C(CC(F)(F)F)NCc1ccc(/C=C/C(c2cc(Cl)c(Cl)c(Cl)c2)C(F)(F)F)cc1 (centres unmarked) [CC6] | A (50-100)
CC(=O)NCc1ccc(/C=C/C(c2cc(Cl)cc(Cl)c2)C(F)(F)F)cc1Cl (centres unmarked) [CC7, (E)-N-(2-Chloro-4-(3-(3,5-dichlorophenyl)-4,4,4-trifluorobut-1-en-1-yl)benzyl)acetamide] | A (50-100)
O=C(NCc1ccc(/C=C/C(c2cc(Cl)cc(Cl)c2)C(F)(F)F)cc1Cl)C1CC1 (centres unmarked) [CC8] | A (50-100)
O=C(CC(F)(F)F)NCc1ccc(/C=C/C(c2cc(Cl)cc(Cl)c2)C(F)(F)F)cc1Cl (centres unmarked) [CC9] | A (50-100)
O=C(NCc1ccc(/C=C/C(c2cc(Cl)c(Cl)c(Cl)c2)C(F)(F)F)cc1Cl)C1CC1 (centres unmarked) [CC11] | A (50-100)
O=C(Cc1ccc(Cl)nc1)NCc1ccc(/C=C/C(c2cc(Cl)c(Cl)c(Cl)c2)C(F)(F)F)cc1Cl (centres unmarked) [CC14] | A (50-100)
O=C(NCc1ccc(/C=C/C(c2cc(Cl)c(F)c(Cl)c2)C(F)(F)F)cc1Cl)C1CC1 (centres unmarked) [CC15] | A (50-100)
O=C(NCc1ccc(/C=C/C(c2ccc(Cl)c(Cl)c2)C(F)(F)F)cc1Cl)C1CC1 (centres unmarked) [CC17] | A (50-100)
O=C(CC(F)(F)F)NCc1ccc(/C=C/C(c2ccc(Cl)c(Cl)c2)C(F)(F)F)cc1Cl (centres unmarked) [CC18] | A (50-100)
CSCCC(=O)NCc1ccc(/C=C/C(c2cc(Cl)c(Cl)c(Cl)c2)C(F)(F)F)cc1Cl (centres unmarked) [CC19] | A (50-100)
FC(F)(F)C(/C=C/c1ccc(CNC(=S)C2CC2)c(Cl)c1)c1cc(Cl)c(Cl)c(Cl)c1 (centres unmarked) [CC20] | A (50-100)
O=C(NCc1ccc(/C=C/C(c2cc(Cl)cc(Cl)c2)C(F)(F)F)cc1C(F)(F)F)C1CC1 (centres unmarked) [CC21] | A (50-100)
O=C(NCc1ccc(/C=C/C(c2cc(Cl)c(Cl)c(Cl)c2)C(F)(F)F)cc1C(F)(F)F)C1CC1 (centres unmarked) [CC22] | A (50-100)
O=C(NCc1ccc(/C=C/C(c2cc(Cl)c(Cl)c(Cl)c2)C(F)(F)F)cc1C(F)(F)F)c1cccnc1 (centres unmarked) [CC23] | A (50-100)
O=C(CC(F)(F)F)NCc1ccc(/C=C/C(c2cc(Cl)c(Cl)c(Cl)c2)C(F)(F)F)cc1C(F)(F)F (centres unmarked) [CC24] | A (50-100)
O=C(CC(F)(F)F)NCc1ccc(/C=C/C(c2cc(Cl)c(Cl)c(Cl)c2)C(F)(F)F)cc1Br (centres unmarked) [CC25] | A (50-100)
O=C(NCc1ccc(/C=C/C(c2cc(Cl)c(Cl)c(Cl)c2)C(F)(F)F)cc1Br)C1CC1 (centres unmarked) [CC26] | A (50-100)
O=C(CC(F)(F)F)NCc1ccc(/C=C/C(c2cc(Cl)c(Cl)c(Cl)c2)C(F)(F)F)cc1F (centres unmarked) [CC27] | A (50-100)
O=C(NCc1ccc(/C=C/C(c2cc(Cl)c(Cl)c(Cl)c2)C(F)(F)F)cc1F)C1CC1 (centres unmarked) [CC28] | A (50-100)
O=C(C1CC1)N(Cc1ccccn1)Cc1ccc(/C=C/C(c2cc(Cl)c(Cl)c(Cl)c2)C(F)(F)F)cc1C(F)(F)F (centres unmarked) [CC29, (E)-N-(Pyridin-2-ylmethyl)-N-(4-(4,4,4-trifluoro-3-(3,4,5-trichlorophenyl)but-1-enyl)-2-(trifluoromethyl)benzyl)cyclopropanecarboxamide] | A (50-100)
CS(=O)(=O)CCC(=O)NCc1ccc(/C=C/C(c2cc(Cl)c(Cl)c(Cl)c2)C(F)(F)F)cc1Cl (centres unmarked) [CC30, (E)-N-(2-Chloro-4-(4,4,4-trifluoro-3-(3,4,5-trichlorophenyl)but-1-en-1-yl)benzyl)-3-(methylsulfonyl)propanamide] | A (50-100)

SMILES | BAW Rating
CCNC(=O)NCc1ccc(/C=C/C(c2cc(Cl)cc(Cl)c2)C(F)(F)F)cc1Cl (centres unmarked) [CC31, (E)-1-(2-Chloro-4-(3-(3,5-dichlorophenyl)-4,4,4-trifluorobut-1-en-1-yl)benzyl)-3-ethylurea] | B (More than 0-Less than 50)
CCNC(=O)NCc1ccc(/C=C/C(c2cc(Cl)c(Cl)c(Cl)c2)C(F)(F)F)cc1C(F)(F)F (centres unmarked) [CC32] | A (50-100)
CCNC(=O)NCc1ccc(/C=C/C(c2cc(Cl)c(Cl)c(Cl)c2)C(F)(F)F)cc1Br (centres unmarked) [CC33] | A (50-100)
O=C(NCc1ccc(/C=C/C(c2cc(Cl)c(Cl)c(Cl)c2)C(F)(F)F)cc1Cl)N1CCOCC1 (centres unmarked) [CC34] | A (50-100)
CN(C)C(=O)NCc1ccc(/C=C/C(c2cc(Cl)c(Cl)c(Cl)c2)C(F)(F)F)cc1Cl (centres unmarked) [CC36, (E)-3-(2-Chloro-4-(4,4,4-trifluoro-3-(3,4,5-trichlorophenyl)but-1-en-1-yl)benzyl)-1,1-dimethylurea] | A (50-100)
CCNC(=S)NCc1ccc(/C=C/C(c2cc(Cl)c(Cl)c(Cl)c2)C(F)(F)F)cc1Cl (centres unmarked) [CC37, (E)-1-(2-Chloro-4-(4,4,4-trifluoro-3-(3,4,5-trichlorophenyl)but-1-en-1-yl)benzyl)-3-ethylthiourea] | A (50-100)
C=CCNC(=S)NCc1ccc(/C=C/C(c2cc(Cl)c(Cl)c(Cl)c2)C(F)(F)F)cc1Cl (centres unmarked) [CC38] | A (50-100)
FC(F)(F)C(/C=C/c1ccc(CNc2ccccn2)c(Cl)c1)c1cc(Cl)c(Cl)c(Cl)c1 (centres unmarked) [CC43, (E)-N-(2-Chloro-4-(4,4,4-trifluoro-3-(3,4,5-trichlorophenyl)but-1-en-1-yl)benzyl)pyridin-2-amine] | A (50-100)
O=C(CC(F)(F)F)NCc1ncc(/C=C/C(c2cc(Cl)c(Cl)c(Cl)c2)C(F)(F)F)cc1Cl (centres unmarked) [CC44, (E)-N-((3-Chloro-5-(4,4,4-trifluoro-3-(3,4,5-trichlorophenyl)-but-1-en-1-yl)pyridin-2-yl)methyl)-3,3,3-trifluoropropanamide] | A (50-100)
O=C(NCc1ncc(/C=C/C(c2cc(Cl)c(Cl)c(Cl)c2)C(F)(F)F)cc1Cl)C1CC1 (centres unmarked) [CC45] | A (50-100)
O=C(NNc1ccc(/C=C/C(c2cc(Cl)c(Cl)c(Cl)c2)C(F)(F)F)cc1)C1CC1 (centres unmarked) [CC50, (E)-N′-(4-(4,4,4-Trifluoro-3-(3,4,5-trichlorophenyl)but-1-en-1-yl)phenyl)cyclopropanecarbohydrazide] | A (50-100)
O=C(CC(F)(F)F)NNc1ccc(/C=C/C(c2cc(Cl)c(Cl)c(Cl)c2)C(F)(F)F)cc1 (centres unmarked) [CC51] | A (50-100)
O=C(NOc1ccc(/C=C/C(c2cc(Cl)c(Cl)c(Cl)c2)C(F)(F)F)cc1)C1CC1 (centres unmarked) [CC52, (E)-N-(4-(4,4,4-Trifluoro-3-(3,4,5-trichlorophenyl)but-1-en-1-yl)phenoxy)cyclopropanecarboxamide] | A (50-100)
O=C(CC(F)(F)F)NCc1ccc(/C=C\C(c2cc(Cl)c(Cl)c(Cl)c2)C(F)(F)F)cc1 (centres unmarked) [CC54, (Z)-3,3,3-Trifluoro-N-(4-(4,4,4-trifluoro-3-(3,4,5-trichlorophenyl)but-1-en-1-yl)benzyl)propanamide] | A (50-100)
FC(F)(F)C(/C=C/c1ccc(-n2cncn2)cc1)c1cc(Cl)cc(Cl)c1 (centres unmarked) [DC1, (E)-1-(4-(3-(3,5-Dichlorophenyl)-4,4,4-trifluorobut-1-en-1-yl)phenyl)-1H-1,2,4-triazole] | A (50-100)
FC(F)(F)C(/C=C/c1ccc(-n2cncn2)cc1)c1ccccc1 (centres unmarked) [DC3] | B (More than 0-Less than 50)
FC(F)(F)C(/C=C/c1ccc(-n2cncn2)cc1)c1ccc(Cl)cc1 (centres unmarked) [DC4] | A (50-100)
Fc1ccc(C(/C=C/c2ccc(-n3cncn3)cc2)C(F)(F)F)cc1 (centres unmarked) [DC7] | A (50-100)
Fc1cc(F)cc(C(/C=C/c2ccc(-n3cncn3)cc2)C(F)(F)F)c1 (centres unmarked) [DC8] | A (50-100)
Cc1cc(C)cc(C(/C=C/c2ccc(-n3cncn3)cc2)C(F)(F)F)c1 (centres unmarked) [DC11] | A (50-100)
